# According to US4428963A, “Novel thiophene derivatives” (Hoffmann-La Roche Inc., priority 1983, dated 1984):
# Key:
# [1] = system: Cholesterol Synthesis (liver); assay: In vivo cholesterogenesis in rat liver after intraperitoneal administration (Table II); details: i.p. 0.1 mmoles/kg
# Description: (§1) Rats are prepared by fasting 48 hours and refeeding a 1% corn oil 70% glucose diet for several days (5-15). On the experimental day, rats are dosed 30 or 60 minutes before the 3 hour meal by oral intubation, or 60 minutes after the end of the 3 hour meal by intraperitoneal injection. (The dose concentrated is a mmoles/kg/5-10 ml H2 O or 1% gum arabic depending on the solubility of the compound.) Rats are sacrificed by decapitation after a 30 minute pulse consisting of: 1mCi^3 H2 O,5 μCi[U-^14 C]alanine, 12.3 mg. alanine, and 30.6 mg α-ketoglutaric acid in […], given at the end of the 3 hour meal by i.v. injection into the tail vein. Blood was collected, allowed to clot and the serum analyzed for triglyceride and cholesterol levels. […] At this stage the lipids are either counted (to determine the rate of lipogenesis) or precipitated with digitonin, washed, and counted (to determine the rate of cholesterogenesis). The conversion of ^3 H2 O and [^14 C]alanine into fatty acids or sterols is determined in a PDS/3, Mark II liquid scintillation counting system. Data are expressed as moles ^3 H2 O nmoles converted into fatty acids and cholesterol per g liver per 30 minutes. […]
# (§2) sacrificed and rates of synthesis determined.
# (§3) ^b Data are expressed as μmoles ^3 H2 O and moles[ ^1 […]
# [2] = system: Cholesterol Synthesis (liver); assay: In vivo cholesterol synthesis in rat liver after oral administration (Table V); details: for Cholesterol Synthesis, 3H2O converted: control 1.35 ± 0.04; for Cholesterol Synthesis, [14C]alanine converted: control 33.0 ± 3.1
# Description: (§4) Rats are prepared by fasting 48 hours and refeeding a 1% corn oil 70% glucose diet for several days (5-15). On the experimental day, rats are dosed 30 or 60 minutes before the 3 hour meal by oral intubation, or 60 minutes after the end of the 3 hour meal by intraperitoneal injection. (The dose concentrated is a mmoles/kg/5-10 ml H2 O or 1% gum arabic depending on the solubility of the compound.) Rats are sacrificed by decapitation after a 30 minute pulse consisting of: 1mCi^3 H2 O,5 μCi[U-^14 C]alanine, 12.3 mg. alanine, and 30.6 mg α-ketoglutaric acid in […], given at the end of the 3 hour meal by i.v. injection into the tail vein. Blood was collected, allowed to clot and the serum analyzed for triglyceride and cholesterol levels. The livers are quickly excised, saponified, and acidified (only for determining the rate of lipogenesis) and extracted with hexane. At this stage the lipids are either counted (to determine the rate of lipogenesis) or precipitated with digitonin, washed, and counted (to determine the rate of cholesterogenesis). The conversion of ^3 H2 O and [^14 C]alanine into fatty acids or sterols is determined in a PDS/3, Mark II liquid scintillation counting system. Data are expressed as moles ^3 H2 O nmoles converted into fatty acids and cholesterol per g liver per 30 minutes.
# (§5) ^a Charles River CD rats (6 rats per group at 160-180 g) were fasted
# (§6) 48 hours, then mealfed a high carbohydrate diet for 18 days. On the
# (§7) experimental day, rats were given an oral dose (1% gum arabic or
# (§8) 3amino-4-carbomethoxy-2-n-propylthiophene hydrochloride in 1% gum arabic
# (§9) at the above concentrations) 30 minutes before the beginning of the meal.
# (§10) At the end of the 3 hour meal, the rats were given an i.v. pulse,
# sacrificed 30 minutes later, and rates of synthesis were determined.
# (§11) ^b Data are expressed as μmoles ^3 H2 O and nmoles
# [^14 C]alanine converted into cholesterol per g liver per 30 minutes.
# [3] = Serum lipids after intraperitoneal administration (Table III); assay type: in vivo, rat; details: i.p. 0.1 mmoles/kg
# Description: as §4, with “minutes. […]” for “minutes.”
# as §2
# [4] = system: Fatty Acid Synthesis (liver); assay: In vivo fatty acid synthesis in rat liver after oral administration (Table IV); details: oral 1.2 mmoles/kg
# Description: as §4, §5, §6, §7, §8, §9, §10
# sacrificed 30 minutes later and rates of synthesis were determined.
# as §11
# [^14 C]alanine converted into fatty acids per g liver per 30 minutes.
# [5] = system: Fatty Acid Synthesis (liver); assay: In vivo lipogenesis in rat liver after intraperitoneal administration (Table II); details: i.p. 0.1 mmoles/kg; control 614 ± 66
# Description: as §1, §2, §3
# [6] = Serum triglycerides, cholesterol, insulin and glucose after oral administration at increasing concentrations (Table VII); assay type: in vivo, rat; details: oral gavage, 0.4 to 1.2 mmoles/kg over 10 days
# Description: as §4
# (§12) ^a Charles River female rats were fasted 48 hr, then mealfed (8 to 11
# (§13) a.m.) a high carbohydrate diet for 14 days. Rats weighing 180 to 210 g (1
# (§14) in each group) were dosed by gastric gavage, with either 1% gum arabic or
# (§15) Compound A in 1% gum arabic. The initial dose was 0.4 mmoles (89 mg) per
# (§16) kg body weight and was increased by 0.2 mmoles (44 mg) per kg body weight
# (§17) every other day. The experimental period consisted of 10 days, and the
# (§18) doses given were 0.4, 0.6, 0.8, 1.0 and 1.2 mmoles per kg. All rats were
# fed 1/2 hr after the oral dose. On the 10th day, following the 3 hr meal
# (§19) each rat received an intravenous injection (consisting of 5 μCi
# (§20) [U^14 C]alanine, 1 mCi ^3 H2 O, 12.3 mg alanine and 30.6 mg
# ketoglutaric acid) and was killed 30 min later. Blood was collected,
# allowed to clot and serum analyzed.
# Each value is the mean ±SE
# [7] = system: Hepatic Fatty Acid Synthesis; assay: Hepatic fatty acid synthesis after oral administration at increasing concentrations (Table VI); assay type: in vivo, rat; details: oral gavage, 0.4 to 1.2 mmoles/kg over 10 days
# Description: as §4, §12, §13, §14, §15, §16, §17, §18
# (§21) fed 1/2 hr after the oral dose. On the 10th day, following the 3 hr meal,
# as §19, §20
# (§22) ketoglutaric acid) and was killed 30 min later. Livers were quickly
# (§23) excised, saponified, and extracted for fatty acids or cholesterol. Data
# (§24) are expressed as μmoles ^3 H2 O or nmoles [^14 C]alanine
# (§25) converted into fatty acids or cholesterol per gram liver per 30 min.
# (§26) Each value is the mean ± SE.
# [8] = system: Hepatic Cholesterol Synthesis; assay: Hepatic cholesterol synthesis after oral administration at increasing concentrations (Table VI); assay type: in vivo, rat; details: oral gavage, 0.4 to 1.2 mmoles/kg over 10 days
# Description: as §4, §12, §13, §14, §15, §16, §17, §18, §21, §19, §20, §22, §23, §24, §25, §26
# [9] = Body weight and food intake in ad libitum high fat fed rats, 63 day study (Table VIII); assay type: in vivo, rat
# Description: (§27) As previously mentioned, the compounds disclosed and claimed herein are also useful as antiobesity agents. […] Groups of 10 rats were fed ad libitum a 10% corn oil, 60% glucose diet in accordance with the methodology described in Sullivan et al., Am. J. Clin. Nutr. 30:767-776 (1977). The effect of 4-amino-5-ethyl-3-thiophene carboxylic acid methyl ester hydrochloride on body weight, total body fat and protein was determined. The results are tabulated in Example 35 (Table VIII and Table IX) of the specification.
# (§28) The antiobesity activity of 4-amino-5-ethyl-3-thiophene carboxylic acid methyl ester hydrochloride (Compound A) was evaluated in a long-term chronic experiment in which body weight gain and food consumption were monitored at least biweekly. The study was conducted on Charles River rats receiving 10% corn oil: 60% glucose (high fat) diets. For the first 32 days of this study a dose of approximately 71 mg./kg. body weight/day was given. From day 33 until the end of the study the average daily dose was increased to 130 mg./kg. body weight/day. The study included a group of rats pair-fed to the Compound A treated rats, i.e., the pair-fed animals received the same amount of food as their Compound A paired rat consumed on the previous day. Pair feeding was terminated several days after food intake in the Compound A treated groups returned to control levels. Pair-feeding to the Compound A treated group was terminated on day 22. Upon termination of the study, carcass lipid and protein levels, serum lipids and hepatic rates of fatty acid synthesis in vivo were determined. A summary of the initial and final body weights, cumulative weight gained and food consumed and average daily food intake is presented in Table VIII.
# (§29) ^a Female Charles River rats (10 rats per group) were fed ad libitum
# (§30) the 10% corn oil:60% glucose diet. On day 1 of the experiment rats were
# (§31) divided into three groups: (1) control, (2) Compound A as a dietary
# admixture (71 mg/kg body weight/day, and (3) pairfed to the Compound A
# treated group. Pairfeeding was terminated on day 23. On day 33 the
# concentraton of Compound A was increased to 130 mg/kg/day.
# [10] = Total body fat and protein in ad libitum high fat fed rats, 63 day study (Table IX); assay type: in vivo, rat; details: dietary admixture 71 then (day 33) 130 mg/kg/day, 63 days
# Description: as §27, §28, §29, §30, §31
# admixture (71 mg/kg body weight/day), and (3) pairfed to the Compound A
# treated group. Pairfeeding was terminated on day 22. On day 33 the
# concentration of Compound A was increased to 130 mg/kg/day.
# [11] = oral 0.4 nmoles/kg (so in the source)
smiles,measurement,setting,value
CCCc1scc(C(=O)OC)c1N.Cl [3-amino-4-carbomethoxy-2-n-propylthiophene hydrochloride],"Cholesterol Synthesis, 3H2O converted",[1]; control 1.36 ± 0.07,0.85 ± 0.06 μmoles/g/30 min.
same,"Cholesterol Synthesis, [14C]alanine converted",[1]; control 35.7 ± 3.2,17.6 ± 1.9 nmoles/g/30 min
same,"Cholesterol Synthesis, 3H2O, % of Control",[2]; [11],71 % of Control
same,"Cholesterol Synthesis, [14C]alanine, % of Control",[2]; [11],53 % of Control
same,"Cholesterol Synthesis, 3H2O converted",[2]; [11],0.96 ± 0.05 μmoles/g/30 min.
same,"Cholesterol Synthesis, [14C]alanine converted",[2]; [11],17.4 ± 0.9 nmoles/g/30 min.
same,"Cholesterol Synthesis, 3H2O, % of Control",[2]; oral 1.2 mmoles/kg,65 % of Control
same,"Cholesterol Synthesis, [14C]alanine, % of Control",[2]; oral 1.2 mmoles/kg,46 % of Control
same,"Cholesterol Synthesis, 3H2O converted",[2]; oral 1.2 mmoles/kg,0.88 ± 0.16 μmoles/g/30 min.
same,"Cholesterol Synthesis, [14C]alanine converted",[2]; oral 1.2 mmoles/kg,15.2 ± 3.2 nmoles/g/30 min.
same,Triglycerides (serum),[3]; control 67 ± 4,51 ± 3 mg %
same,Cholesterol (serum),[3]; control 116 ± 7,105 ± 11 mg %
same,"Fatty Acid Synthesis, 3H2O, % of Control",[4],36 % of Control
same,"Fatty Acid Synthesis, [14C]alanine, % of Control",[4],34 % of Control
same,"Fatty Acid Synthesis, 3H2O converted",[4]; control 19.6 ± 2.4,7.1 ± 1.7 μmoles/g/30 min.
same,"Fatty Acid Synthesis, [14C]alanine converted",[4]; control 473 ± 76,162 ± 60 nmoles/g/30 min.
same,"Fatty Acid Synthesis, [14C]alanine converted",[5],251 ± 36 nmoles/g/30 min.
"CCc1scc(C(=O)OC)c1N.Cl [Compound A, 4-amino-5-ethyl-3-thiophenecarboxylic acid methyl ester hydrochloride]","Cholesterol (value in parentheses, relative to control)",[6],81%
same,"Glucose (value in parentheses, relative to control)",[6],97%
same,"Insulin (value in parentheses, relative to control)",[6],49%
same,"Triglycerides (value in parentheses, relative to control)",[6],62%
same,Insulin (serum),"[6]; mean ± SE, control 3.85 ± 0.74",1.91 ± 0.24 ng/mL
same,Triglycerides (serum),"[6]; mean ± SE, control 51 ± 3",31 ± 3 mg %
same,Cholesterol (serum),"[6]; mean ± SE, control 97 ± 5",79 ± 6 mg %
same,Glucose (serum),"[6]; mean ± SE, control 165 ± 7",160 ± 5 mg %
same,"Fatty Acid Synthesis, 3H2O (value in parentheses, relative to control)",[7],49%
same,"Fatty Acid Synthesis, [14C]alanine (value in parentheses, relative to control)",[7],42%
same,"Fatty Acid Synthesis, 3H2O","[7]; mean ± SE, control 36.7 ± 2.7",18.0 ± 2.3 μmoles/g/30 min
same,"Fatty Acid Synthesis, [14C]alanine","[7]; mean ± SE, control 685 ± 59",290 ± 49 nmoles/g/30 min
same,"Cholesterol Synthesis, 3H2O (value in parentheses, relative to control)",[8],120%
same,"Cholesterol Synthesis, [14C]alanine (value in parentheses, relative to control)",[8],114%
same,"Cholesterol Synthesis, 3H2O","[8]; mean ± SE, control 0.50 ± 0.06",0.60 ± 0.06 μmoles/g/30
same,"Cholesterol Synthesis, [14C]alanine","[8]; mean ± SE, control 13.9 ± 1.5",15.8 ± 1.6 nmol/g/30 min
same,IBW (initial body weight),"[9]; baseline of Compound A group, control 215 ± 3",214 ± 3 g
same,FI (food intake),"[9]; dietary admixture 71 then (day 33) 130 mg/kg/day, 63 days, control 17.7 ± 0.7, pair-fed 16.0 ± 0.4",16.3 ± 0.4 g/day
same,CBWG (cumulative body weight gain),"[9]; dietary admixture 71 then (day 33) 130 mg/kg/day, 63 days, control 68 ± 6, pair-fed 66 ± 6",41 ± 4 g
same,FBW (final body weight),"[9]; dietary admixture 71 then (day 33) 130 mg/kg/day, 63 days, control 282 ± 8, pair-fed 281 ± 6",256 ± 4 g
same,CFC (cumulative food consumption),"[9]; dietary admixture 71 then (day 33) 130 mg/kg/day, 63 days, control 1115.1 ± 44.1, pair-fed 1008.0 ± 25.2",1026.9 ± 25.2 g
same,"Protein, % of body weight",[10]; control 19.1 ± 1.6,20.7 ± 1.4 % of body weight
same,"Lipid, % of body weight",[10]; control 23.5 ± 2.2,16.5 ± 1.7 % of body weight
same,"Protein, total",[10]; control 54.1 ± 4.8,52.7 ± 0.6 g
same,"Lipid, total",[10]; control 66.8 ± 7.1,42.1 ± 4.5 g
